What was measured:
hTGF-β1 promoter [1] = assay: Transient transfection and luciferase assay in hVSMC; type: cell-based, human; settings: for expression of luciferase driven by hTGF-β1 promoter: 10^−9 M, 24 hr incubation
Description: One microgram of the luciferase gene which was controlled by the hTGF-β1 promoter was transfected for 6 hr in sterilized medium using lipofectin reagent. After 24 hr of the transfection, cells were incubated for 24 hr in a medium containing 0.5% CS in the presence (or absence) of the polyamide or the mismatched polyamide, and the luciferase activity was assayed in these cells extracts using a dual luciferase/reporter gene assay system. One hundred μL of luciferase substrate was mixed with 20 μL cell extracts. After the mixing, the reaction mixture was placed in a luminometer (Turner Designs-Bioblock, Illkirch, France), and the light emitted for ten seconds at room temperature was measured. PMA was used as a positive control. Comparison with the control *P<0.05.
(§1) The 2.2 kb fragment containing the hTGF-β1 promoter derived from plasmid phTBG 101 (non-patent document 10) was isolated and inserted to pGL3 basic plasmid (Promega, Madison, Wis.) at the upstream of the coding region of luciferase reporter gene. The accurate structure of the constructed plasmid was identified by spectral analysis with restriction enzymes analysis and sequencing.
hVSMC cells were cultured at a density of […] in 24 well plates in the presence of 10% CS. After 24 hr, the reporter gene that was driven by the hTGF-β1 promoter was transfected using Lipofectin reagent (GibcoBRL) in the presence of 1 μg DNA in the sterilized medium, according to the method indicated by the manufacturer. Cells were incubated with the DNA liposome complex for 6 hours, and then the medium was exchanged to 1 ml of fresh complete medium. […] After brief centrifugation, luciferase activity in the cell extracts was measured using a dual-luciferase reporter gene assay system (Promega, Madison, Wis.). […] After mixing, the reaction mixture was placed in a luminometer (Turner Designs-Bioblock, Illkirch, France), and the light emitted for ten seconds at room temperature was measured.

hTGF-β1 mRNA = assay: RT-PCR assay of hTGF-β1 mRNA in hVSMC; type: cell-based, human; settings: for expression of hTGF-β1 mRNA: 10^−9 M, 24 hr, TPA induced
Description: Treatment with 50 ng/mL of TPA was used as a positive control. […] (A) Five microliters of PCR product was separated on a 1.5% agarose gel electrophoresis. […] Cultured cells were washed with PBS, dissolved in 800 μL of RNAzolB (Biotex Laboratories, Inc., Houston, Tex.), mixed with 80 μL of chloroform and centrifuged. The colorless upper aqueous phase was mixed with an equal volume of isopropanol to precipitate RNA. RNA pellet was washed twice with 500 μL of 75% ethanol and, after drying, dissolved in 10 μL of TE buffer. After denaturing at 65° C. for 15 min, the RNA sample was treated with 0.5 U DNase (Gibco) in 0.5 ml of DNase buffer (20 mM Tris-HCl pH 8.3, 50 mM KCl, 2.5 mM MgCl2) at room temperature for 45 min. DNase was denatured by adding 0.5 ml of 0.5M EDTA and heating at 98° C. for 10 min. RNA aliquots of an equal amount (1 μg/20 μL) were reverse transcribed to single stranded cDNAs using 2.5 U/20 μL of avian myeloblastosis virus reverse transcriptase (Takara Biochemicals, Osaka, Japan) in 10 mM Tris-HCl (pH 8.3), 5 mM MgCl2, 50 mM KCl, 1 mM deoxy NTPs and 2.5 μM random hexamers. Two microliters of the diluted cDNA product was made up to 25 μl by mixing with 10 mM Tris-HCl (pH 8.3), 50 mM KCl, 4 mM MgCl2, 0.025 U/μL Taq DNA polymerase (Takara Biochemicals, Osaka, Japan), and 0.2 μM each of the upstream sense primer and downstream antisense primer. […] For human 18S ribosomal RNA, the sense primer ([…] NO: 6) and the antisense primer ([NT] ID NO: 7) were used as the internal control. PCR was carried out with an automatic heat controller (Perkin Elmer, Foster, Calif.). The PCR conditions were: initial denaturation, at 94° C. for 2 min; 30 cycles of denaturation at 94° C. for 1 min, annealing at 58° C. for 1 min and extension at 72° C. for 1 min; last extension at 72° C. for 1 min. As an internal control, PCR with primers for 18S rRNA was included in each reaction. […] For semi-quantitative analysis of mRNA, the kinetics of PCR was monitored. […] The intensity of the bands was measured by computer analysis using NIH software.

[2] = test system: double stranded oligonucleotide corresponding to the base pairs from −548 to −537 of hTGF-β1 promoter; assay: Gel-shift assay: binding of polyamide to double stranded oligonucleotide; parameters: species or system human; settings: binding buffer, 37° C., 15 min; 20% polyacrylamide gel, autoradiography
Description: The double stranded DNA corresponding to the base pair sequence from −548 to −537 of the hTGF-β1 promoter (FIG. 1) was labeled by T4 polynucleotide using [γ-^32P]-ATP and incubated in a binding buffer at 37° C. for 15 min together with mismatch polyamide (lane 0) or with increasing amount of the polyamide (lane 1, 2 and 3 was 1 nM, 2 nM and 4 nM, respectively). The complexes thus obtained were electrophoresed on a 20% polyacrylamide gel and visualized by autoradiography.
Oligonucleotides were synthesized, annealed, and 12 kinds of double stranded oligonucleotides were produced corresponding to the base pairs from −548 to −537 of hTGF-β1 promoter (FIG. 1A). The double stranded DNAs were labeled with [γ-^32P]-ATP using T4 polynucleotide kinase, and incubated in a binding buffer (40 mM Tris, pH 7.9, 250 mM NaCl, 25 mM EDTA, 25 mM DTT, 100 mM KCl) with the polyamides or mismatched polyamides at 37° C. for 15 min. The complexes thus obtained were electrophoresed by 20% polyacrylamide gel and visualized by autoradiography.

hTGF-β1 promoter [3] = assay: In vitro transcription reaction with HeLa nuclear extract; type: biochemical, human; settings: HeLa nuclei extract, hTGF-β1 promoter template, 30° C., 60 min
Description: One microgram of a plasmid was incubated in the transcription buffer with 8 U of HeLa nucleus extract, 3 kinds of non-labeled nucleotide triphosphates (UTP, CTP, GTP) at […] each, and 25 μM α-^32P-ATP at 30° C. for 60 min. The reaction was terminated by adding 175 μl of HeLa extract stop solution, and then phenol-chloroform-isoamyl alcohol extraction and ethanol precipitation were carried out. Samples were re-suspended in 98% […] loading dye and heated at 90° C. for 10 min before loading a 6%, 7 M urea-polyacrylamide gel. The gel was dried and visualized by autoradiography;
as §1
In vitro transcription reactions were carried out using nuclear extracts of Hela cells and the in vitro transcription system (Promega, Madison, Wis.). […]

hTGF-β1 protein = assay: Western blot analysis of hTGF-β1 protein in hVSMC; type: cell-based, human; settings: 10^−9 M, 24 hr incubation
Description: 10^−9 M of the polyamide was added to medium of cultured hVSMC and incubated for 24 hr. (A) The expression of hTGFβ1 protein was investigated by Western blot analysis.
Test VSMC and control VSMC were incubated in 6-well plates for 24 hr, washed twice with PBS and incubated on ice in 300 μL of lysis buffer (50 mM Tris-HCl (pH 8.0), 150 mM NaCl, 1 mM EDTA, 1 mM phenylmethylsulfonyl fluoride, 1 μg/mL aprotinin, 1% Triton X-100) for 30 min. Cells were scraped into a 1.5 mL tube and centrifuged, and the supernatant was collected. The protein content of the supernatant was assayed by Bradford protein assay using BIO-RAD protein assay kit (Bio-Rad Lab, Hercules, Calif.). The supernatant contained 20 μg of total protein, which was denatured at 100° C. for 3 min in the loading buffer, electrophoresed on a 10% polyacrylamide gel and transferred to a nitrocellulose membrane. The membrane was incubated at room temperature for 1 hr with mouse monoclonal antibody with specificity to hTGF-β1 (1:500) (R&D systems, Minneapolis, Minn.), and then incubated at room temperature for 1 hr with anti-mouse HRP conjugated secondary antibody at 1:2000. After washing sufficiently, the membrane was incubated with an […] luminescence substrate (Amersham Life Service, Buckinghamshire, UK) and exposed to an X-ray film.

Description for cultured hVSMC: FITC labeled polyamide was added directly to the culture medium at the concentration of 10^−9 M and observed under a fluorescent microscope.
hVSMC was obtained from Clonetics (Walkersville, Md.). hVSMC was cultured in Dulbecco's modified Eagle's medium (DMEM) containing 10% calf serum (Gibco Life Technologies, Gaithersburg, Md.), 100 U/ml penicillin and 100 mg/ml streptomycin. Cells were passaged by trypsin treatment with 0.05% trypsin (Gibco) in Ca^2+-free and Mg^2+-free phosphate buffered saline (PBS) and cultured in 75-cm^2 tissue culture flasks. The medium was exchanged every four or five days, and experiments were carried out on cells during 5-10 passages.
Passaged hVSMC was cultured at a density of 10^5/cm^2 for 24 hr in a 24-well flask. FITC-labeled polyamides were directly added to the medium at a concentration of 10^−9 M and observed every one hour under a florescent microscope.

binding to the corresponding 12 base pairs double stranded oligonucleotide [2] | Compound | expression of luciferase driven by hTGF-β1 promoter (positive control) (hTGF-β1 promoter [1]; positive control) | expression of hTGF-β1 mRNA (positive control) (hTGF-β1 mRNA; 50 ng/mL) | detection of FITC in the nuclei of cultured hVSMC (cultured hVSMC) | time FITC labeled polyamide remains in the nucleus of cultured hVSMC (cultured hVSMC) | transcription in in vitro transcription system (hTGF-β1 promoter [3]) | expression of luciferase driven by hTGF-β1 promoter (hTGF-β1 promoter [1]) | expression of hTGF-β1 mRNA (hTGF-β1 mRNA) | expression of hTGF-β1 protein (hTGF-β1 protein)
 | CCCCCCCCCCCCCC(=O)O[C@@H]1[C@@H](C)[C@@]2(O)[C@@H](C=C(CO)C[C@]3(O)C(=O)C(C)=C[C@@H]23)[C@H]2C(C)(C)[C@]12OC(C)=O [TPA] | stimulated the expression of luciferase protein | significantly stimulated the expression of hTGF-β1 mRNA |  |  |  |  |  | 
 | CN(C)CCCNC(=O)CCNC(=O)c1cc(NC(=O)c2cc(NC(=O)CCNC(=O)c3cc(NC(=O)c4cc(NC(=O)c5cc(NC(=O)CCCNC(=O)c6cc(NC(=O)c7cc(NC(=O)c8nc(NC(=O)CCNC(=O)c9cc(NC(=O)c%10cc(NC(=O)c%11nc(NC(=O)CCNC(=S)Nc%12ccc%13c(c%12)C(=O)OC%13%12c%13ccc(O)cc%13Oc%13cc(O)ccc%13%12)cn%11C)cn%10C)cn9C)cn8C)cn7C)cn6C)cn5C)cn4C)cn3C)cn2C)cn1C [compound 4a, FITC-β-IPP-β-IPP-γ-PPP-β-PP-β Dp] |  |  | detected in the nuclei of cultured hVSMC at a high density | more than 48 hr |  |  |  | 
able to bind | CC(=O)Nc1cn(C)c(C(=O)Nc2cc(C(=O)Nc3cc(C(=O)NCCC(=O)Nc4cn(C)c(C(=O)Nc5cc(C(=O)Nc6cc(C(=O)NCCCC(=O)Nc7cc(C(=O)Nc8cc(C(=O)Nc9cc(C(=O)NCCC(=O)Nc%10cc(C(=O)Nc%11cc(C(=O)NCCC(=O)O)n(C)c%11)n(C)c%10)n(C)c9)n(C)c8)n(C)c7)n(C)c6)n(C)c5)n4)n(C)c3)n(C)c2)n1 [compound 4b, Ac-IPP-β-IPP-γ-PPP-β-PP-βCOOH] |  |  |  |  | reduce transcription | significantly downregulated the expression of luciferase | inhibited the expression of hTGF-β1 mRNA induced by TPA | inhibited the expression of hTGF-β1 protein
failed to bind | Ac-PPP-β-IPP-γ-PPP-β-COOH [mismatch polyamide] |  |  |  |  | did not show any significant effect | had no effect | did not | 

From patent US7807844B2, “TGF-β gene expression inhibitor” (Nihon University, priority 2003, dated 2010)
